Data published in the OPERA property sets (Mansouri et al. 2018).

settings: not given

Compared with `Cl.Nc1ccccc1`, `Nc1cccc(I)c1` is lower in melting point: 198 °C for the first, 33 °C for the second.

Compared with `OCc1ccc(CO)cc1`, `Cc1ccc(CCc2ccc(C)cc2)cc1` is lower in melting point: 118 °C for the first, 85 °C for the second.

Going from `Cc1cc(O)cc(O)c1` to `Cc1ccc(Cl)cc1N`, the melting point falls from 108 °C to 26 °C.

Going from `COC(=O)NS(=O)(=O)c1ccc(N)cc1` to `CC(C)OC(=O)C1(S(=O)(=O)c2ccc(Cl)cc2)CCCC1`, the melting point falls from 144 °C to 92.5 °C.

Going from `CCCC(C)(C)C(C)(C)C` to `CC(C)(C)CO`, the melting point rises from -54 °C to 52.5 °C.

First: c1ccc(C(c2ccccc2)(c2ccccc2)c2ccccc2)cc1
Second: Oc1ccc2ccccc2c1/N=N/c1ccc(/N=N\c2ccccc2)cc1
The melting point of the first is higher: 282 °C for the first, 195 °C for the second.

Compared with `COP(=O)(OC)O/C(=C\Cl)c1ccc(Cl)cc1Cl`, `Oc1ccc(Cl)cc1Cc1cc(Cl)ccc1O` is higher in melting point: 69.5 °C for the first, 178 °C for the second.

Compared with `CCOP(=S)(S)OCC`, `CCCC(C)Br` (stereo unspecified) is lower in melting point: -10 °C for the first, -95.5 °C for the second.

Compared with `Cc1cc(C2CCCCC2)n(O)c(=O)c1`, `NC(=O)C1CCN(CCCN2c3ccccc3Sc3ccc(Cl)cc32)CC1` is lower in melting point: 144 °C for the first, 139 °C for the second.

Compared with `C1SCSCS1`, `CCC1CCC1` is lower in melting point: 220 °C for the first, -143 °C for the second.

Compared with `CCCCCCCCCCCCCCC=O`, `CCCCCCCCCCCCCCCCCCCCCCCCCCC` is higher in melting point: 24.5 °C for the first, 59.5 °C for the second.

Compared with `OCC1CCC(CO)CC1` (stereo unspecified), `C#C[C@]1(O)CC[C@H]2[C@@H]3CCC4=CC(=O)CC[C@@H]4[C@H]3CC[C@@]21CC` is higher in melting point: 51 °C for the first, 223 °C for the second.

First: CCC(C(=O)O)c1ccc(N2Cc3ccccc3C2=O)cc1 (stereo unspecified)
Second: CCOC(=O)N1C(=O)c2ccccc2C1=O
The melting point of the first is higher: 183 °C for the first, 91 °C for the second.

Going from `O=[N+]([O-])c1c(Cl)c(Cl)cc(Cl)c1Cl` to `Cc1ncc2n1-c1ccc(Cl)cc1C(c1ccccc1F)=NC2`, the melting point rises from 99.5 °C to 159 °C.

First: CC(C)C=CC(=O)O
Second: CC(C)C(=O)C(C)C
The melting point of the first is higher: 35 °C for the first, -69 °C for the second.

First: CCCCCCCC(C)C
Second: CCC(C)I (stereo unspecified)
The melting point of the first is higher: -74.6 °C for the first, -104 °C for the second.

First: O=C1c2ccccc2C(=O)C1c1ccccc1
Second: c1ccc2c(c1)Nc1ccccc1S2
The melting point of the first is lower: 150 °C for the first, 188 °C for the second.

Going from `c1ccc2cc3c(ccc4cc5ccccc5cc43)cc2c1` to `c1ccc2cc3cc4ccccc4cc3cc2c1`, the melting point rises from 257 °C to 357 °C.

First: COc1ccc(C(=O)CC(=O)c2ccc(C(C)(C)C)cc2)cc1
Second: CCc1c(CC)c(CC)c(CC)c(CC)c1CC
The melting point of the first is lower: 83.5 °C for the first, 129 °C for the second.

First: ClCCOCCOCCCl
Second: CSC(C)(C)C=NO
The melting point of the first is lower: -31.5 °C for the first, 21 °C for the second.

With `C/C=C\C` the melting point was -122 °C.

Going from `CCOCN(C(=O)CCl)c1c(C)cccc1CC` to `COC(=O)NS(=O)(=O)c1ccc(N)cc1`, the log10 Koc (L/kg) falls from 2.32 to 1.6.

Going from `O=[N+]([O-])c1c(Cl)c(Cl)cc(Cl)c1Cl` to `c1ccc2cc3cc4ccccc4cc3cc2c1`, the log10 Koc (L/kg) rises from 4.05 to 5.81.

Compared with `Cc1cc(O)cc(O)c1`, `Cc1ccc(Cl)cc1N` is lower in boiling point: 290 °C for the first, 239 °C for the second.

Compared with `C=CCCCC(C)C`, `CCCCCCCC(C)C` is higher in boiling point: 113 °C for the first, 167 °C for the second.

First: COCC(F)F
Second: COC(C)CCO (stereo unspecified)
The boiling point of the first is lower: 48.5 °C for the first, 157 °C for the second.

Compared with `CCCC(C)(C)C(C)(C)C`, `CC(C)(C)CO` is lower in boiling point: 160 °C for the first, 114 °C for the second.

Going from `c1ccc(C(c2ccccc2)(c2ccccc2)c2ccccc2)cc1` to `c1ccc2c(c1)Nc1ccccc1S2`, the boiling point falls from 431 °C to 371 °C.

Going from `ClCCCCBr` to `ClCCOCCOCCCl`, the boiling point rises from 175 °C to 232 °C.

Going from `NCC(F)(F)C(F)(F)F` to `CCOC(=O)C(Cl)(Cl)C(C)=O`, the boiling point rises from 49 °C to 206 °C.

Compared with `CCCCCCCCCCC#N`, `CCCCCCCCCCCCCCCCCCCCCCCCCCC` is higher in boiling point: 253 °C for the first, 442 °C for the second.

First: OCC1CCC(CO)CC1 (stereo unspecified)
Second: CCC1CCC1
The boiling point of the first is higher: 285 °C for the first, 70.8 °C for the second.

First: CCOc1ccc(CC)cc1
Second: CCN(CC)c1cccc2ccccc12
The boiling point of the first is lower: 210 °C for the first, 285 °C for the second.

Going from `CCCC(C)Br` (stereo unspecified) to `CCC(C)I` (stereo unspecified), the boiling point rises from 117 °C to 120 °C.

Compared with `O=[N+]([O-])c1c(Cl)c(Cl)cc(Cl)c1Cl`, `CCc1c(CC)c(CC)c(CC)c(CC)c1CC` is lower in boiling point: 304 °C for the first, 298 °C for the second.

First: CC(C)C=CC(=O)O
Second: CC(C)C(=O)C(C)C
The boiling point of the first is higher: 217 °C for the first, 125 °C for the second.

Going from `CSC(C)(C)C=NO` to `C/C=C\C`, the boiling point falls from 210 °C to 2.25 °C.

`CCCCOC(C)C` showed a boiling point of 109 °C.

With `Cc1cc(O)cc(O)c1` the ready biodegradability was “not readily biodegradable”.
In the case of `CCOP(=S)(S)OCC`, the ready biodegradability is reported as “not readily biodegradable”.
In the case of `CC(=O)Nc1ccc2c(c1)Cc1cc(F)ccc1-2`, the ready biodegradability is reported as “not readily biodegradable”.
In the case of `ClCCOCCOCCCl`, the ready biodegradability is reported as “not readily biodegradable”.
For `Oc1ccc(Cl)cc1Cc1cc(Cl)ccc1O`, the ready biodegradability was “not readily biodegradable”.
For `c1ccc2c(c1)Nc1ccccc1S2`, the ready biodegradability was “not readily biodegradable”.
With `COC(C)CCO` (stereo unspecified) the ready biodegradability was “readily biodegradable”.

First: C=CCCCC(C)C
Second: CCCCCCCC(C)C
The log10 vapour pressure (mmHg) of the first is higher: 1.4 for the first, 0.276 for the second.

Going from `COCC(F)F` to `CCC(C)I` (stereo unspecified), the log10 vapour pressure (mmHg) falls from 2.48 to 1.23.

Compared with `CCCC(C)(C)C(C)(C)C`, `CC(C)(C)CO` is higher in log10 vapour pressure (mmHg): 0.589 for the first, 1.2 for the second.

First: COP(=O)(OC)O/C(=C\Cl)c1ccc(Cl)cc1Cl
Second: Oc1ccc(Cl)cc1Cc1cc(Cl)ccc1O
The log10 vapour pressure (mmHg) of the first is higher: -5.01 for the first, -10 for the second.

Compared with `CCC(C)c1ccc(O)c([N+](=O)[O-])c1` (stereo unspecified), `O=[N+]([O-])c1c(Cl)c(Cl)cc(Cl)c1Cl` is lower in log10 vapour pressure (mmHg): -2.34 for the first, -2.74 for the second.

Compared with `OCC1CCC(CO)CC1` (stereo unspecified), `CCCC(C)Br` (stereo unspecified) is higher in log10 vapour pressure (mmHg): -3.51 for the first, 1.33 for the second.

First: ClCCOCCOCCCl
Second: CCCCCCCCCCCCCCCCCCCCCCCCCCC
The log10 vapour pressure (mmHg) of the first is higher: -1.22 for the first, -6.55 for the second.

Compared with `CC(C)C(=O)C(C)C`, `c1ccc2cc3cc4ccccc4cc3cc2c1` is lower in log10 vapour pressure (mmHg): 1.13 for the first, -8.6 for the second.

Going from `CCC(C)c1ccc(O)c([N+](=O)[O-])c1` (stereo unspecified) to `C/C=C\C`, the log10 Henry constant (atm·m³/mol) rises from -4.02 to -0.643.

`CCCCCCCCCCCCCCCCCCCCCCCCCCC` gave a log10 biodegradation half-life (days) of 2.15.

same assay, conditions: fish

Going from `COP1(=S)OCc2ccccc2O1` (stereo unspecified) to `c1ccc2c(c1)Nc1ccccc1S2`, the log10 BCF rises from 1.31 to 2.55.

Compared with `Clc1c(Cl)c(Cl)c(Cl)c(Cl)c1Cl`, `O=[N+]([O-])c1c(Cl)c(Cl)cc(Cl)c1Cl` is lower in log10 BCF: 4.33 for the first, 3.23 for the second.

Compared with `CCOP(=S)(S)OCC`, `Oc1ccc(Cl)cc1Cc1cc(Cl)ccc1O` is higher in log10 BCF: 0.7 for the first, 2.28 for the second.

Going from `COP1(=S)OCc2ccccc2O1` (stereo unspecified) to `c1ccc2c(c1)Nc1ccccc1S2`, the log10 biotransformation half-life (days) rises from -1.15 to 0.04.

First: Clc1c(Cl)c(Cl)c(Cl)c(Cl)c1Cl
Second: O=[N+]([O-])c1c(Cl)c(Cl)cc(Cl)c1Cl
The log10 biotransformation half-life (days) of the first is higher: 2.44 for the first, 0.49 for the second.

Work on `Oc1ccc(Cl)cc1Cc1cc(Cl)ccc1O` yielded a log10 biotransformation half-life (days) of -0.51.
